Here are results for 15 compounds from EP4596536A1 (Shanghai de Novo Pharmatech Co., Ltd., priority 2022, dated 2024).

In this experiment the target is T1, TLR8 (Homo sapiens, UniProt Q9NR97).
T1 construct: host or cells: HEK293 (HEK-BLUE-hTLR8)
T1 sequence (Q9NR97 27-1041): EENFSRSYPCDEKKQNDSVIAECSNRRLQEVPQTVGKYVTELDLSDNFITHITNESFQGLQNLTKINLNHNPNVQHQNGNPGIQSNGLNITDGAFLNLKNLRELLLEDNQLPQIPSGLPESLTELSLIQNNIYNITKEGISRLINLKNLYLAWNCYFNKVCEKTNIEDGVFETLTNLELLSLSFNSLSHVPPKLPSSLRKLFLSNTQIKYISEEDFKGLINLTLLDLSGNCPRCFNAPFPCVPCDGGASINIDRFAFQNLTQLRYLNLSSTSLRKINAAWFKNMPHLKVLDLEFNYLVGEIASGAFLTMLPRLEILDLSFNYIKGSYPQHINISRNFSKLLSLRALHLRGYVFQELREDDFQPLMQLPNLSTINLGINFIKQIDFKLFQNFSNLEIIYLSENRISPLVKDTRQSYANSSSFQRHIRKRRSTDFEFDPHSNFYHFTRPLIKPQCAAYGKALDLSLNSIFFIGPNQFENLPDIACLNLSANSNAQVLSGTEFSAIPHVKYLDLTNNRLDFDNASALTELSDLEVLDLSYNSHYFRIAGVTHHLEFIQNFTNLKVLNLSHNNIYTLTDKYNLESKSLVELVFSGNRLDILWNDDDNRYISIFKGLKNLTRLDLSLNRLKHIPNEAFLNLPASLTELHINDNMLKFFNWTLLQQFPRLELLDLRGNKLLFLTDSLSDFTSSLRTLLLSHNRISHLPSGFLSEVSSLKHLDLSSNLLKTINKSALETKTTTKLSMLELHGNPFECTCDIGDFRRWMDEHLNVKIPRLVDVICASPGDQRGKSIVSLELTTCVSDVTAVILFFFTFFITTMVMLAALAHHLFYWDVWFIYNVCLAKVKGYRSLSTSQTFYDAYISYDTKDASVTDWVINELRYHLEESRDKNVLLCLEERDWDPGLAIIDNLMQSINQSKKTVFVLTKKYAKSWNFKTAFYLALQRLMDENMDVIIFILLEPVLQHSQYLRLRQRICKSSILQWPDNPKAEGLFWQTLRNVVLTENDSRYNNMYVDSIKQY
As to the kind of experiment: HEK-BLUE-hTLR8 cell SEAP reporter assay (Quanti-Blue). Type of experiment: cell-based. The note with it: HEK-BLUE-hTLR8 cells, 0.5 nM to 15 µM, 24 hours. As to the method:
In this experiment, the biological activity of TLR7 and TLR8 in the compound of formula I was detected using cell tests. This method was conducted in human embryonic kidney cells (HEK293) expressing TLR family members such as TLR4, TLR7, TLR8 or TLR9. TLR agonists activate TLRs, triggering the activation of downstream NF-kB, which in turn activates the secreted embryonic alkaline phosphatase (SEAP) reporter gene. The activity of SEAP was detected using the Quanti-Blue (InvivoGen) reagent, thereby reflecting the activities of TLR7 and TLR8 agonists.
The detailed experimental method was as follows: HEK-BLUE-hTLR7 and HEK-BLUE-hTLR8 cell lines were purchased from Invivogen Company and cultured in DMEM medium containing 4.5 g/L glucose (Sigma-Aldrich) and 10% fetal bovine serum under the conditions of temperature 37°C, humidity 95% and 5% CO2.
The compound was tested at a concentration ranging from 0.5 nM to 15 µM over a total of 10 concentration gradients. TLR7 or TLR8 agonists with known activity were added as positive controls, and 1 µL of DMSO was added as a negative control.
The cells were treated as follows: the cells were removed from the culture dish and centrifuged to remove the medium, and resuspended in a T-150 bottle with 10 mL of preheated PBS, 12 mL of preheated medium was added, and the cells were gently pipetted up and down and counted under a microscope. A 200,000/mL single-cell suspension was immediately prepared with medium and added to a 96-well plate at 200 µL/well (40,000/well). The final concentration of DMSO was 0.5%.
The compound was added and incubated in an incubator at 37°C, 5% CO2 for 24 hours.
A supernatant at 20 µL/well was aspirated into 180 µL of preheated Quanti-Blue at 37°C, incubated at 37°C for 1.5 hours, and detected for the absorbance (OD value) with a spectrophotometer at 650 nm. The formula for calculating the agonistic effect is as follows:
Effect % = (average OD value of the drug-administered group - average OD value of the DMSO group) / (average OD value of the positive drug group - average OD value of the DMSO group) × 100
Graphpad software was used to fit the concentration-effect curve, and EC50 was calculated. The test results are shown in Table 15 (A denotes < 250 nM, B denotes 250 nM-1 µM, C denotes 1 µM-2 µM, D denotes > 2 µM, and - denotes not listed or not tested): Table 15
In general terms: Reporter assays use an easily measured gene product as a stand-in for the process of interest.
The term EC50 denotes the concentration at which the effect is half-maximal. The low end stands for higher potency in that assay, the high end for lower potency in that assay. Compound `CCCN(CCO)C(=O)C1=Cc2ccc(C3(C(=O)Nc4cnc5c(c4)CN(C(=O)CCOCCOCCOCCOCCOCCOCCNC(=O)CCN4C(=O)C=CC4=O)CC5)CC3)cc2N=C(N)C1` [II-12, 2-amino-8-(1-((6-(1-(2,5-dioxo-2,5-dihydro-1H-pyrrol-1-yl)-3-oxo-7,10,13,16,19,22-hexaoxa-4-azapentacosan-25-acyl)-5,6,7,8-tetrahydro-1,6-naphthyridin-3-yl)carbamoyl)cyclopropyl)-N-(2-hydroxyethyl)-N-propyl-3H-benzo[b]azepine-4-formamide] registered an EC50 of 250 to 1000 nM.
As to `CCCN(CCO)C(=O)C1=Cc2ccc(C3(C(=O)Nc4cnc5c(c4)CN(C(=O)[C@H](CCCNC(N)=O)NC(=O)[C@@H](NC(=O)CCCCCN4C(=O)C=CC4=O)C(C)C)CC5)CC3)cc2N=C(N)C1` [II-19, 2-amino-8-(1-((6-((S)-2-((S)-2-(6-(2,5-dioxo-2,5-dihydro-1H-pyrrol-1-yl)hexanoylamino)-3-methylbutanoylamino)-5-ureidopentanoyl)-5,6,7,8-tetrahydro-1,6-naphthyridin-3-yl)carbamoyl)cyclopropyl)-N-(2-hydroxyethyl)-N-propyl-3H-benzo[b]azepine-4-formamide], the EC50 is 250 to 1000 nM.
`CCCN(CCC)C(=O)C1=Cc2ccc(C3(C(=O)Nc4ccc5c(c4)CNCC5)CC3)cc2N=C(N)C1` [Compound 15, 2-amino-N,N-dipropyl-8-(1-((1,2,3,4-tetrahydroisoquinolin-7-yl)carbamoyl)cyclopropyl)-3H-benzo[b]azepine-4-formamide] showed an EC50 below 250 nM.
Then `CCCN(CCO)C(=O)C1=Cc2ccc(C3(C(=O)Nc4cnc5c(c4)CN(C(=O)CCOCCOCCNC(=O)CN4C(=O)C=CC4=O)CC5)CC3)cc2N=C(N)C1` [II-23, 2-amino-8-(1-((6-(3-(2-(2-(2-(2,5-dioxo-2,5-dihydro-1H-pyrrol-1-yl)acetylamino)ethoxy)ethoxy)propionyl)-5,6,7,8-tetrahydro-1,6-naphthyridin-3-yl)carbamoyl)cyclopropyl)-N-(2-hydroxyethyl)-N-propyl-3H-benzo[b]azepine-4-formamide], with below 250 nM; and `CCCN(CCO)C(=O)C1=Cc2c(F)cc(C3(C(=O)Nc4cncc(CN)c4)CC3)cc2N=C(N)C1` [Compound 12, 2-amino-8-(1-((5-(aminomethyl)pyridin-3-yl)carbamoyl)cyclopropyl)-6-fluoro-N-(2-hydroxyethyl)-N-propyl-3H-benzo[b]azepine-4-formamide], with below 250 nM.
Then “(S)-1-((1-(3-(1-(2-amino-4-((2-hydroxyethyl)(propyl)carbamoyl)-3H-benzo[b]azepin-8-yl)cyclopropyl-1-amido)-7,8-dihydro-1,6-naphthyridin-6(5H)-yl)-1-oxo-5-ureidopentan-2-yl)carbamoylamino)cyclobutyl-1-carboxylic acid [Example 35]”, with 250 to 1000 nM.
In the case of `CCCN(CCO)C(=O)C1=Cc2ccc(C3(C(=O)Nc4cnc5c(c4)CN(C(=O)CCOCCOCCNC(=O)CCN4C(=O)C=CC4=O)CC5)CC3)cc2N=C(N)C1` [II-7, 2-amino-8-(1-((6-(3-(2-(2-(3-(2,5-dioxo-2,5-dihydro-1H-pyrrol-1-yl)propionylamino)ethoxy)ethoxy)propionyl)-5,6,7,8-tetrahydro-1,6-naphthyridin-3-yl)carbamoyl)cyclopropyl)-N-(2-hydroxyethyl)-N-propyl-3H-benzo[b]azepine-4-formamide] it was 250 to 1000 nM; in that of `CCCN(CCO)C(=O)C1=Cc2ccc(C3(C(=O)NCc4cncc(N)c4)CC3)cc2N=C(N)C1` [Compound 22, 2-amino-8-(1-(((5-aminopyridin-3-yl)methyl)carbamoyl)cyclopropyl)-N-(2-hydroxyethyl)-N-propyl-3H-benzo[b]azepine-4-formamide], 250 to 1000 nM; in that of `CCCN(CCO)C(=O)C1=Cc2ccc(C3(C(=O)Nc4cnc5c(c4)CN(C(=O)CNC(=O)[C@H](Cc4ccccc4)NC(=O)CNC(=O)CNC(=O)CCCCCN4C(=O)C=CC4=O)CC5)CC3)cc2N=C(N)C1`, 250 to 1000 nM.
Compound `CCCN(CCO)C(=O)C1=Cc2ccc(C3(C(=O)Nc4cnc5c(c4)CN(C(=O)CNC(=O)CCOCCOCCNC(=O)CN4C(=O)C=CC4=O)CC5)CC3)cc2N=C(N)C1` [II-46, 2-amino-8-(1-((6-(1-(2,5-dioxo-2,5-dihydro-1H-pyrrol-1-yl)-2,12-dioxo-6,9-dioxa-3,13-diazapentadecan-15-acyl)-5,6,7,8-tetrahydro-1,6-naphthyridin-3-yl)carbamoyl)cyclopropyl)-N-(2-hydroxyethyl)-N-propyl-3H-benzo[b]azepine-4-formamide] gave an EC50 below 250 nM.
As for `CCCN(OCC)C(=O)C1=Cc2ccc(C3(C(=O)Nc4cnc5c(c4)CNCC5)CC3)cc2N=C(N)C1` [Compound 23, 2-amino-N-ethoxy-N-propyl-8-(1-((5,6,7,8-tetrahydro-1,6-naphthyridin-3-yl)carbamoyl)cyclopropyl)-3H-benzo[b]azepine-4-formamide], the EC50 is below 250 nM.
Then `CCCN(CCO)C(=O)C1=Cc2ccc(C3(C(=O)Nc4cnc5c(c4)CN(C(=O)CCOCCOCCNC(=O)OCc4ccc(NC(=O)[C@H](CCCNC(N)=O)NC(=O)[C@@H](NC(=O)CCCCCN6C(=O)C=CC6=O)C(C)C)cc4)CC5)CC3)cc2N=C(N)C1` [II-104], with 250 to 1000 nM.
Consider `CCCN(CCO)C(=O)C1=Cc2ccc(C3(C(=O)Nc4cnc5c(c4)CN(C(=O)OCc4ccc(NC(=O)[C@H](CCCNC(N)=O)NC(=O)[C@@H](NC(=O)Cc6ccc(N7C(=O)C=CC7=O)cc6)C(C)C)cc4)CC5)CC3)cc2N=C(N)C1` [II-97], for which the EC50 fell in the range of 250 to 1000 nM.
In the case of `CCCN(CCO)C(=O)C1=Cc2c(F)cc(C3(C(=O)Nc4cncc(CNC(=O)CNC(=O)CCOCCOCCNC(=O)CN5C(=O)C=CC5=O)c4)CC3)cc2N=C(N)C1` [II-64, 2-amino-8-(1-((5-(17-(2,5-dioxo-2,5-dihydro-1H-pyrrol-1-yl)-3,6,16-trioxo-9,12-dioxa-2,5,15-triazaheptadecyl)pyridin-3-yl)carbamoyl)cyclopropyl)-N-(2-hydroxyethyl)-6-fluoro-N-propyl-3H-benzo[b]azepine-4-formamide], the half-maximal effective concentration (EC50) was 250 to 1000 nM.
Consider `CCCN(CCO)C(=O)C1=Cc2ccc(C3(C(=O)Nc4cnc5c(c4)CN(C(=O)CNC(=O)CCOCCOCCNC(=O)CCCNC(=O)CN4C(=O)C=CC4=O)CC5)CC3)cc2N=C(N)C1` [II-24, 2-amino-8-(1-((6-(20-(2,5-dioxo-2,5-dihydro-1H-pyrrol-1-yl)-4,14,19-trioxo-7,10-dioxa-3,13,18-triazaeicosanacyl)-5,6,7,8-tetrahydro-1,6-naphthyridin-3-yl)carbamoyl)cyclopropyl)-N-(2-hydroxyethyl)-N-propyl-3H-benzo[b]azepine-4-formamide], for which the EC50 fell in the range of 250 to 1000 nM.
